According to US20240050420A1, “NANOMEDICINES FOR TREATMENT OF DISEASE” (Chapman University, priority 2022, published 2024):
“Also recorded” adds a separate entry of the source.

Experiments:
[1] = Drug release from NPs by dialysis and HPLC; type: physicochemical; settings: monitored over a 7-day period; growth media with serum
Excerpt: FIGS. 1A-I depict synthesis and characterization of polycystic kidney targeted nanoparticles. FIG. 1A: Schematic representation of synthesis, drug loading and surface functionalization of PLGA nanoparticles. FIG. 1B: The morphological features of the plain (unloaded) and drugs-loaded PLGA nanoparticles were imaged with scanning electron microscopy. Scale bars, 200 nm. FIG. 1C: Hydrodynamic size distribution of unloaded and drugs-loaded nanoparticles. FIG. 1D: Average zeta-potential measurements of unloaded and drugs-loaded nanoparticles. FIG. 1E: Average hydrodynamic size stability measurements of nanoparticles in saline (PBS), mouse plasma and growth media (DMEM) containing fetal bovine serum. […]
For both rapamycin and 4-hydoxy-TEMPO encapsulated nanoparticles (RapaTEMPO-NPs) were synthesized by a combination (1000 mg) and rapamycin (20 mg) and 4-hydoxy-TEMPO (20 mg) (polymer to total drug ratio […]) was chosen. […] XPS spectra of the samples were recorded on a Kratos Analytical AXIS Supra system with a monochromated Al/Ag X-ray source (Al target). Total survey spectra were recorded in a range from 1300 to −5 eV binding energy (dwell time 200 ms, step size 1 eV, 2 sweeps), and all the region scans were conducted with suitable ranges (dwell time 500 ms, step size 0.05 eV and 5 sweeps). […]

[2] = test system: polycystic kidneys; settings: literature; cited from earlier work
[3] = test system: mTOR signaling pathway; assay: Immunoblotting of p-S6K and p-S6 in kidney lysates; type: in vivo, mice; settings: end of 9 weeks of therapy
Protocol: Drug-NPs were administered intravenously once, while drug-only was intravenously injected daily. N=5. […] Total-S6K (t-S6K), total-S6 (t-S6) and equal loading control (GAPDH). N=3. FIG. 4C: Immunoblot data for p-S6K in bar graphs. […] Statistical analysis was performed using ANOVA followed by Tukey's multiple comparison test.
Immunoblotting. After the completion of in-life studies, mice treated with the different control, plain and drug-loaded nanoparticles were euthanized, and the kidneys were collected and rinsed with PBS. Approximately 100 mg of tissue samples were placed in RIPA buffer supplemented with Complete Protease Inhibitor (MedChemExpress). […] Samples were then centrifuged at 20 000 rpm for 15 min, and the supernatants were collected and subjected to protein quantification. The PAGE (polyacrylamide gel electrophoresis) on 8-10% SDS gels was performed, followed by semi-dry transfer to PVDF membranes using a Bio-Rad Trans-Blot (Turbo Transfer) machine and detection using antibodies against p-S6 (1:000), p-S6K (1:1000), t-S6 (1:2000), t-S6K (1:2000) and GAPDH (1:1,000) (Cell Signaling Technology). Blots were scanned with both calorimetries to image molecular markers and chemiluminescence to capture the protein signal intensity using a BioRad Gel-doc imaging system.

[4] = test system: Pkd2 mice; assay: CT imaging of total kidney volume; type: in vivo; settings: CT at 3, 6 and 9 weeks
Protocol: FIGS. 20A-C. FIGS. 20A-B depict coronal and trans-axial CT imaging of mice at 3, 6 and 9 weeks of treatment time. FIG. 20C: Plots showing the total kidney volume at 3, 6 and 9 weeks of treatment time.
Because RapaTEMPO-NPs were applied prior to severe cystic development in the kidneys, lateral (FIG. 20A) and cross-section (FIG. 20B) of computerized tomography scans were performed in the kidneys at 3-, 6- and 9-weeks to monitor progression of changes in kidney volume. […] Longitudinal effects on blood pressure were also monitored throughout the treatment period (FIG. 21). The increase in blood pressure in kidney-specific Pkd2 seemed to be associated with expansion of renal cysts leading to compression in renal vasculature and eventual RAAS activation.

[5] = test system: ADPKD cells; assay: 3D cyst culture in Matrigel/collagen with forskolin and EGF; type: cell-based, human; settings: 3D culture, treatment from day 1, evaluated on day 6
Protocol: FIGS. 2A-C depict functional nanoparticle-targeting in 3-dimensional culture. FIG. 2A: Human renal epithelia from normal kidney (NK) cells and autosomal dominant polycystic kidney disease (ADPKD) were grown to form cysts in a 3D Matrigel system with collagen in the presence of forskolin and EGF for 1 day followed by different treatments for 5 additional days. All representative live DIC and fluorescence images were taken at 6 days. Control treatment was denoted as vehicle (saline-only). 3D non-cyst/cyst cultures were imaged for nanoparticles uptake, cyst formation and cysts size measurements. The inset images at the right showing the enlarged cystic area taken from the white square boxes selected from the images at the left. Scale bar, 200 μm. FIG. 2B: Percent number of cysts were measured and plotted in bar graphs; each point represents an averaged of replicate.
3D cyst culture and live imaging. […] To assess the effects of vehicle (saline) and different plain and drug-loaded nanoparticles (1 mg/mL) were added (10 μL) on day one after stimulation with forskolin and cyst formation were evaluated on day 6. The cyst growth was observed by using Nikon live cell microscope using its DIC and fluorescence capabilities. […] Using ×20 lens, the number of cysts and their sizes (in diameter) in each well was counted and measured using an ocular scale from the Nikon Eclipse Imaging Software. […]

[6] = Drug loading of NPs quantified by HPLC; type: physicochemical; settings: loading into PLGA nanoparticles
Protocol: For both rapamycin and 4-hydoxy-TEMPO encapsulated nanoparticles (RapaTEMPO-NPs) were synthesized by a combination (1000 mg) and rapamycin (20 mg) and 4-hydoxy-TEMPO (20 mg) (polymer to total drug ratio […]) was chosen. Also, 50 mg of 3,3′-diethylthiadicarbocyanine iodide (Cy5, 680 fluorescent emission agent) was dissolved in 20 mL of DMSO. The mixture was then added into the dispersing phase (40 mL of water with 1.2 mL of 10% Pluronic F-68) dropwise under moderate magnetic stirring (500 rpm, 1 h). For size and shape measurements, synthesized nanomaterials were examined by SEM using a TESCAN GAIA-3 XMH integrated focused ion beam-FESEM electron microscope. […] XPS spectra of the samples were recorded on a Kratos Analytical AXIS Supra system with a monochromated Al/Ag X-ray source (Al target). Total survey spectra were recorded in a range from 1300 to −5 eV binding energy (dwell time 200 ms, step size 1 eV, 2 sweeps), and all the region scans were conducted with suitable ranges (dwell time 500 ms, step size 0.05 eV and 5 sweeps). The FTIR spectra were recorded using a Bruker ALPHA (Platinum-ATR) spectrometer in the diffuse reflectance mode at a resolution of 4 cm^−1. The rapamycin and 4-yydoxy-TEMPO loading efficiencies were quantified by High-Performance Liquid Chromatography (HPLC; SHIMADZU). […]

[7] = test system: Pkd2 mice; assay: 9-week treatment of Pkd2 mice: body weight, survival, cysts, fibrosis, kidney fluorescence; settings: long-term use, drug-alone 1 mg/kg i.v. daily
Excerpt: FIG. 5A: Kidney comparison of wild-type (WT) and Pkd2 kidneys after 9-weeks of treatment. Color, brightfield, fluorescent images were captured consecutively. The hematoxylin and eosin (H&E) sections were obtained from the same corresponding kidneys.
FIG. 5B: Fluorescence intensity measurements from isolated kidneys were normalized to total kidney volume (TKV). […] FIG. 5D: Total kidney weight measurement. FIG. 5D. Percent weight ratio of 2 kidneys to body weight (2 KW/BW). FIG. 5F: Total cyst number calculated using H&E staining. FIG. 5G: Kaplan-Meier survival curves analyzed with Log-rank test. N=5 for all experiments. *P<0.05, **P<0.01, ***P<0.001, ****P<0.0001 compared to wild-type vehicle. #P<0.05, ##P<0.01, #44P<0.001, #44t #P<0.0001 compared to Pkd2 vehicle. Statistical analysis was performed using ANOVA followed by Tukey's multiple comparison test.
Animal studies. […] All animal experimentation was conducted as double-blinded operators to disregard biases and critical analyses. All control (KspCre·Pkd2^WT/WT) and PKD (KspCre·Pkd2^flox/flox) non-inducible mice models were obtained from the Jackson Laboratory and Harvard Medical School.
Histology Studies. Sections of the mouse visceral organs (hearts, kidneys, livers, spleens, and lung)s, were collected and subjected to hematoxylin and eosin (H&E) staining by starting the tissue fixation using 10% formalin. Then, the tissues were dehydrated in buffered formalin, ethanol, and xylene. Finally, the tissues were embedded in liquid paraffin, sectioned (5 μm), and stained with H&E for histological examinations. The pathology slices were observed and imaged using a KEYENCE BZ-X710 microscope. Mouse normal and polycystic kidney sections were stained with Masson's trichrome to detect fibrosis using a Masson's Trichrome Stain Kit (Polysciences, Inc.).
Throughout the studies, KspCre·Pkd2^WT/WT and KspCre·Pkd2^flox/flox mouse models were used and are respectively referred to wild-type and Pkd2 mice henceforth.

Structure (SMILES) | Time of maximum drug release from NPs [1] | Kidney injury and fibrosis [2] | Effect on levels of phosphorylation of S6K and S6 [3] | Total kidney volume over treatment time [4] | Cyst number and size [5] | Drug loading, weight ratio drug/NPs [6] | Body weight [7] | Body weight ([7]; listed as rapamycin-alone)
CC1(C)CC(O)CC(C)(C)N1[O] [4-hydroxy-[2,2,6,6-tetramethylpiperidin-1-yl]oxidanyl] | about 3 days | alleviate kidney injury and fibrosis by reducing renal superoxide | minimal effect | no effect in kidney volume expansion | some effect | 34.7±3.1% | – | –
CO[C@H]1C[C@@H]2CC[C@@H](C)[C@@](O)(O2)C(=O)C(=O)N2CCCC[C@H]2C(=O)O[C@H]([C@H](C)C[C@@H]2CC[C@@H](O)[C@H](OC)C2)CC(=O)[C@H](C)/C=C(\C)[C@@H](O)[C@@H](OC)C(=O)[C@H](C)C[C@H](C)/C=C/C=C/C=C/1C [rapamycin] | – | – | – | – | – | – | reduced | significantly lowered the body weight; also recorded: nor reduces the impediment in body weight gain
